Laboratory results published in patent publication US9113629B2, “4-amino-6-(4-substituted-phenyl)-picolinates and 6-amino-2-(4-substituted-phenyl)-pyrimidine-4-carboxylates and their use as herbicides” (DOW AGROSCIENCES LLC, priority 2013, dated 2015).
Where two headings read alike, the source gives them in different places.

Assays:
[1] = tested on: Key Broadleaf Weed and Crop Species; assay: Post-emergent Test II herbicidal activity (Table 5); type: in vivo; settings: post-emergence, 336 h, post-emergent, 14 days after application; for pest or weed control at 70 g/ha: 70 g ai/ha; for pest or weed control at 140 g/ha: 140 g ai/ha
Procedure, shortened: (§1)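 Spray rates: a highest rate plus ½×, ¼×, ⅛×, 1/16×, all delivered at 187 L/ha to plants at the first–second true leaf stage. Readout is a visual percent injury score at 14 d, where 100 means complete kill.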

[2] = tested on: Key Grass and Sedge Weeds as well as Grass Crops; assay: Post-emergent Test II herbicidal activity (Table 6); type: in vivo; settings: post-emergence, 336 h; for pest or weed control at 70 g/ha: application rate 70 g ai/ha; for pest or weed control at 140 g/ha: application rate 140 g ai/ha
Procedure, shortened: as §1

[3] = ABUTH: velvetleaf (Abutilon theophrasti), read-out: Visual Growth Reduction (%) 14 Days After Application ABUTH
[4] = AMARE: redroot pigweed (Amaranthus retroflexus), read-out: Visual Growth Reduction (%) 14 Days After Application AMARE
[5] = BRSNN: oilseed-rape, canola (Brassica napus), read-out: Visual Growth Reduction (%) 14 Days After Application BRSNN
[6] = CHEAL: lambsquarters (Chenopodium album), read-out: Visual Growth Reduction (%) 14 Days After Application CHEAL
[7] = EPHHL: wild poinsettia (Euphorbia heterophylla), read-out: Visual Growth Reduction (%) 14 Days After Application EPHHL
[8] = HELAN: sunflower (Helianthus annuus), read-out: Visual Growth Reduction (%) 14 Days After Application HELAN
[9] = VIOTR: wild pansy (Viola tricolor), read-out: Visual Growth Reduction (%) 14 Days After Application VIOTR
[10] = CYPES: yellow nutsedge (Cyperus esculentus), read-out: Visual Growth Reduction (%) 14 Days After Application, CYPES
[11] = DIGSA: crabgrass (Digitaria sanguinalis), read-out: Visual Growth Reduction (%) 14 Days After Application, DIGSA
[12] = ECHCG: barnyardgrass (Echinochloa crus-galli), read-out: Visual Growth Reduction (%) 14 Days After Application, ECHCG
[13] = ORYSA: rice (Oryza sativa), read-out: Visual Growth Reduction (%) 14 Days After Application, ORYSA
[14] = SETFA: giant foxtail (Setaria faberi), read-out: Visual Growth Reduction (%) 14 Days After Application, SETFA
[15] = SORVU: grain sorghum (Sorghum vulgare), read-out: Visual Growth Reduction (%) 14 Days After Application, SORVU
[16] = TRZSS (wheat, Triticum aestivum), read-out: Visual Growth Reduction (%) 14 Days After Application, TRZSS
[17] = ZEAMX: maize, corn (Zea mays), read-out: Visual Growth Reduction (%) 14 Days After Application, ZEAMX

Which melting point does the source give for `COC(=O)c1nc(-c2cc(F)c(C#N)cc2F)cc(N)c1Cl` [Compound 202] here?
Its melting point is 209.7 to 211.9 °C.

And the pest or weed control at 70 g/ha [1, 3]?
The pest or weed control at 70 g/ha was 95 to 100%.

What about the pest or weed control at 140 g/ha [1, 3] of the same molecule?
The pest or weed control at 140 g/ha was 95 to 100%.

What about the pest or weed control at 70 g/ha [1, 4] of the same molecule?
Its pest or weed control at 70 g/ha is 95 to 100%.

What about the pest or weed control at 140 g/ha [1, 4] of the same molecule?
The pest or weed control at 140 g/ha was 95 to 100%.

What about the pest or weed control at 70 g/ha [1, 5] of the same molecule?
Its pest or weed control at 70 g/ha is 75 to 84%.

What about the pest or weed control at 140 g/ha [1, 5] of the same molecule?
The pest or weed control at 140 g/ha was 85 to 94%.

And the pest or weed control at 70 g/ha [1, 6]?
Its pest or weed control at 70 g/ha is 95 to 100%.

What about the pest or weed control at 140 g/ha [1, 6] of the same molecule?
Its pest or weed control at 140 g/ha is 95 to 100%.

And the pest or weed control at 70 g/ha [1, 7]?
Its pest or weed control at 70 g/ha is 95 to 100%.

What about the pest or weed control at 140 g/ha [1, 7] of the same molecule?
Its pest or weed control at 140 g/ha is 95 to 100%.

And the pest or weed control at 70 g/ha [1, 8]?
The pest or weed control at 70 g/ha was 95 to 100%.

And the pest or weed control at 140 g/ha [1, 8]?
The pest or weed control at 140 g/ha was 95 to 100%.

And the pest or weed control at 70 g/ha [1, 9]?
Its pest or weed control at 70 g/ha is 60 to 74%.

What about the pest or weed control at 140 g/ha [1, 9] of the same molecule?
The pest or weed control at 140 g/ha was 60 to 74%.

What about the pest or weed control at 70 g/ha [2, 10] of the same molecule?
The pest or weed control at 70 g/ha was 85 to 94%.

And the pest or weed control at 140 g/ha [2, 10]?
Its pest or weed control at 140 g/ha is 85 to 94%.

What about the pest or weed control at 70 g/ha [2, 11] of the same molecule?
Its pest or weed control at 70 g/ha is 30 to 44%.

What about the pest or weed control at 140 g/ha [2, 11] of the same molecule?
The pest or weed control at 140 g/ha was 60 to 74%.

What about the pest or weed control at 70 g/ha [2, 12] of the same molecule?
Its pest or weed control at 70 g/ha is 60 to 74%.

And the pest or weed control at 140 g/ha [2, 12]?
Its pest or weed control at 140 g/ha is 95 to 100%.

What about the pest or weed control at 70 g/ha [2, 13] of the same molecule?
The pest or weed control at 70 g/ha was 0 to 29%.

What about the pest or weed control at 140 g/ha [2, 13] of the same molecule?
Its pest or weed control at 140 g/ha is 0 to 29%.

What about the pest or weed control at 70 g/ha [2, 14] of the same molecule?
Its pest or weed control at 70 g/ha is 60 to 74%.

What about the pest or weed control at 140 g/ha [2, 14] of the same molecule?
The pest or weed control at 140 g/ha was 60 to 74%.

And the pest or weed control at 70 g/ha [2, 15]?
Its pest or weed control at 70 g/ha is 60 to 74%.

And the pest or weed control at 140 g/ha [2, 15]?
Its pest or weed control at 140 g/ha is 85 to 94%.

What about the pest or weed control at 70 g/ha [2, 16] of the same molecule?
Its pest or weed control at 70 g/ha is 60 to 74%.

And the pest or weed control at 140 g/ha [2, 16]?
Its pest or weed control at 140 g/ha is 75 to 84%.

And the pest or weed control at 70 g/ha [2, 17]?
The pest or weed control at 70 g/ha was 30 to 44%.

What about the pest or weed control at 140 g/ha [2, 17] of the same molecule?
Its pest or weed control at 140 g/ha is 45 to 59%.
